From ChEMBL document CHEMBL1127113, “Diaryl ether/carboxylic acid derivatives of LY255283: Receptor antagonists of leukotriene B4” (Bioorg Med Chem Lett, 1993) come the findings set out here.

For one assay, the species on record is Homo sapiens. The assay is described as follows: The compound was evaluated for its ability to inhibit LTB4-induced chemotaxis of human neutrophils. In kind it is functional.
The next assay addresses Leukotriene B4 receptor (Homo sapiens, UniProt Q9NPC1+Q15722). In words: Inhibition of specific binding of [3H]LTB4 to LTB4 receptor in human neutrophils. It is filed as protein assay.
Assay [1] addresses Leukotriene B4 receptor (Cavia porcellus). The assay is described as follows: Inhibition of specific binding of [3H]-LTB4 to LTB4 receptor in guinea pig lung membranes.

A word on the IC50: it is the concentration that inhibits the measured activity by half. High values mean lower potency, low ones higher potency. One may read the Ki as a measure of affinity in units of concentration, obtained from inhibition or displacement. Low readings indicate higher affinity, high ones lower affinity.

Take `CCCc1c(OCCCOc2cc(O)c(C(C)=O)cc2CC)cccc1OCc1ccccc1C(=O)[O-].[Na+]`: the IC50 in the assay listed under Homo sapiens came out at 1200 nM; on Leukotriene B4 receptor it was 130 nM. For the same molecule, the Ki in assay [1] turned out to be 244 nM.

As for `CCCc1c(OCCCOc2cc(O)c(C(C)=O)cc2CC)cccc1Oc1ccccc1C(=O)[O-].[Na+]`, the IC50 in the assay filed under Homo sapiens was 790 nM; on Leukotriene B4 receptor, 24 nM. Besides, the Ki in assay [1] is 39 nM.

As to `CCc1cc(C(C)=O)c(O)cc1OCCCOc1cccc(Oc2ccccc2C(=O)[O-])c1.[Na+]`, the IC50 on Leukotriene B4 receptor is 290 nM. In assay [1], this molecule displayed a Ki of 130 nM.

`CCCc1cc(Oc2cccc(C(=O)[O-])c2)ccc1OCCCOc1cc(O)c(C(C)=O)cc1CC.[Na+]` gave an IC50 at Leukotriene B4 receptor of 160 nM. Besides, in assay [1], the Ki was 256 nM.

Turning to `CCc1cc(C(C)=O)c(O)cc1OCCCOc1ccc(Oc2ccc(C(=O)[O-])cc2)cc1.[Na+]`, the 50% inhibitory concentration (IC50) on Leukotriene B4 receptor is 190 nM. Moreover, in assay [1], the Ki came to 90 nM.

As to `CCCc1c(OCCCCOc2cc(O)c(C(C)=O)cc2CC)cccc1Oc1ccccc1C(=O)[O-].[Na+]`, the values for the IC50 in the assay filed under Homo sapiens and on Leukotriene B4 receptor were 3100 nM and 94 nM, respectively. In addition, the Ki in assay [1] worked out at 59 nM.

On to `CCc1cc(C(C)=O)c(O)cc1OCCCOc1cccc(Oc2cccc(C(=O)[O-])c2)c1.[Na+]`, for which the IC50 at Leukotriene B4 receptor amounted to 460 nM. Further, the Ki in assay [1] is given as 140 nM.

Take `CCCc1cc(Oc2ccc(C(=O)[O-])cc2)ccc1OCCCOc1cc(O)c(C(C)=O)cc1CC.[Na+]`: the IC50 at Leukotriene B4 receptor is 330 nM. In assay [1], this molecule registered a Ki of 1200 nM.
